From US11242344B2, “(4-hydroxypyrrolidin-2-yl)-heterocyclic compounds and methods of use thereof” (Genentech, Inc., priority 2017, dated 2022) come the findings set out here.

For assay [1], the system named is MYC expression. As to the kind of experiment: Inhibition of MYC expression in MV-4-11 cells. The format is cell-based. The conditions noted are these: 4 h; for IC50: QuantiGene 2.0, geometric mean; for Maximum Inhibition (%): maximum inhibition of MYC expression. The method, then:
Pharmacologic inhibition of MYC is achievable through targeting BET bromodomains through small molecule binder or degrader mechanisms. Such inhibitors may have clinical utility given the widespread pathogenetic role of MYC in cancer. See, e.g., Mertz J, et al., “Targeting MYC dependence in cancer by inhibiting BET bromodomains,” (2011) Proc. Natl. Acad. Sci. USA, Vol. 108 (40), pp. 16669-16674.
To determine the inhibition of MYC expression, MV-4-11 cells (ATCC) were plated at 10,000 cells per well in 96-well plates in RPMI1640 media supplemented with 10% fetal bovine serum and 2 mM L-glutamine. Test compounds diluted in DMSO were transferred to the cell plates, keeping final DMSO concentration consistent at 0.1%, and incubated for 4 h at 37° C. Lysis and analysis for MYC expression were carried out using QuantiGene 2.0 reagents (Affymetrix/eBioscience, probe set cat #SA-50182) and following the vendor's instructions. Luminescence was read using an EnVision plate reader (PerkinElmer) and IC50s generated in Genedata Screener using a 4-parameter non-linear regression fit.
Effective degraders will surpass this and inhibit >95% of MYC, thus following the maximum inhibition within this assay provides valuable SAR. Where more than one measurement was performed for the same assay, the value reported is the geometric mean of all values.

Assay [2] has as its target BRD4 (Homo sapiens (Human), UniProt O60885). Nature of the assay: BRD4 degradation assay in EOL-1 cells, high content fluorescence imaging. It is filed as cell-based. The conditions noted are these: 4 hours; for DC50: BRD4 immunofluorescence, read-out: EOL-1 EC50; for EOL-1 Sinf (%): maximum degradation, percent change in protein level (-100% = complete loss). The method, then:
PC3 (Steap-1) prostate cancer cells: PC3 (Steap-1) prostate cancer cells (PC3 cells overexpressing the surface protein Steap-1) were seeded on day 1 at a density of 200,000 cells/mL in 45 μl/well in cell plates in a 384 well Greiner/Perkin Elmer Cell Carrier TC Treated plate (part #6007430) in Assay Medium (RPMI, 10% FBS, 2 mM Glutamax). Cells were incubated overnight at 37° C. degrees. On day 2, compounds were serially diluted 3-fold in DMSO spanning the concentrations 10 mM to 8.6 nM, in 384 well clear polypropylene plates (Greiner Cat #781201). DMSO and 10 mM of a control PROTAC (dBET1, as described in WO 2017/024317, p. 235, structure below) (control compound) were added to designated wells. Compounds and controls were diluted 50-fold (2 μl of DMSO stock into 98 μl) into Assay Medium. 5 μl of the diluted compounds was transferred to the cell plates. The final top concentration of the test compounds in the cell plates was 20 μM. Cell plates were incubated at 37° C., for 4 hours. Fixation and permeabilization were carried out using a Biotek EL406 plate washer and dispenser as follows. Cells were fixed by addition of 15 μL of 16% paraformaldehyde (Electron Microscopy Sciences #15710-S) directly to the 50 μL cell culture medium in each well using the peristaltic pump 5 μL cassette on a Biotek EL406 (final concentration of formaldehyde was 3.7% w/v). Samples were incubated 30 minutes. Well contents were aspirated and 50 μL/well of Phosphate Buffered Saline (PBS) containing 0.5% w/v bovine serum albumen, 0.5% v/v Triton X-100 (Antibody Dilution Buffer) was added to each well. Samples were incubated for 30 minutes. Well contents were aspirated and washed 3 times with 100 μL/well of PBS.
EOL-1 cells: The BRD4 degradation assay was performed on EOL-1 cells using the same procedure as described above for PC3 (Steap-1) prostate cancer cells, except EOL-1 cells were seeded at 1,000,000 cells/mL. Following aspiration and washing of the well contents with 100 μL/well of PBS, 40 μL PBS plus 10% normal goat serum was added per well for 20 minutes at room temperature.
For both the PC3 and EOL-1 cell assays, immunofluorescence staining of BRD4 was carried out using a Biotek EL406 plate washer and dispenser as follows. The well supernatant was aspirated from the wells and 25 μL/well of rabbit mAb Anti-BRD4 [EPR5150(2)] abeam 128874 diluted 1:500 in Antibody Dilution Buffer is dispensed. Samples were incubated for 2 hours at room temperature. Samples were washed 4 times with 100 μL/well of PBS. 25 μL/well of secondary antibody solution (Goat Anti-Rabbit IgG, DyLight 488 Conjugated Highly Cross-adsorbed #35553 1:1000) diluted 1:1000 and Hoechst 33342 1 μg/ml diluted in Antibody Dilution Buffer) were dispensed into each well. 16 wells of the plate, which were designated as ‘no primary antibody” wells, received only Antibody Dilution Buffer (without anti-BRD4 antibody). Samples were incubated for 2 hours at room temperature. Samples were washed 3 times with 100 μL/well of PBS using a Biotek EL406. Quantitative fluorescence imaging of BRD4 was carried out using a Phenix (Perkin Elmer). Fluorescence images of the samples (Channel 1: Hoechst33342 (DNA stain); Channel 2: 488 nm (BRD4 stain)) were acquired. Channel 1 (DNA stain) was used to define the “Region of Interest” (ROI) nuclear region. Measurements of BRD4 average immunofluorescence intensity within the ROI (nuclear region), were made on a per cell basis and averaged over all the measured cells. Data analysis was carried out using Genedata Screener Software, with DMSO and “no primary antibody” samples being used to define the 0% and 100% changes in BRD4. The “Robust Fit” method was used to define the inflexion point of curve (EC50) and the plateau of the maximal effect (Sinf). The Sinf value reports degradation as percent change in protein level, so complete loss of the protein target is −100%. […]

Where only a bound is given, the exact number is not on record here.

`Cc1ncsc1-c1ccc(C2(C)NC(C3C[C@@H](O)CN3C(=O)C(c3cc(OCCN4CC[C@H](NC(=O)c5cc6c(cc5CS(C)(=O)=O)-c5cn(C)c(=O)c7[nH]cc(c57)CN6c5ncc(F)cc5F)C4)no3)C(C)C)=NC2=O)cc1` (single isomer, unassigned) [Example 1002.2]: in assay [1], inhibition was half-maximal at 25.7 nM (IC50) and the “Maximum Inhibition (%)” value was determined as 90.3%. Moreover, in assay [2], the DC50 worked out at 0.31 nM and the “EOL-1 Sinf (%)” value is −65.0%.
For `Cc1ncsc1-c1ccc(C2(C)NC(C3C[C@@H](O)CN3C(=O)C(c3cc(OCCN4CC[C@H](NC(=O)c5cc6c(cc5CS(C)(=O)=O)-c5cn(C)c(=O)c7[nH]cc(c57)CN6c5ncc(F)cc5F)C4)no3)C(C)C)=NC2=O)cc1` (single isomer, unassigned) [Example 1002.1], in assay [1], the IC50 (as a rule, the concentration needed to halve the response being measured) was 51.5 nM and the “Maximum Inhibition (%)” value was 76.4%. Moreover, in assay [2], the DC50 was above 20000 nM.
In the case of `Cc1ncsc1-c1ccc([C@]2(C)NC([C@@H]3C[C@@H](O)CN3C(=O)C(NC(=O)CCCCCCCCCCNC(=O)c3cc4c(cc3CS(C)(=O)=O)-c3cn(C)c(=O)c5[nH]cc(c35)CN4c3ncc(F)cc3F)C(C)(C)C)=NO2)cc1` (single isomer, unassigned) [Example 1006.1], in assay [2], the DC50 was 1.02 nM and the “EOL-1 Sinf (%)” value is listed as −92.6%.
